Source: US20240270740A1, “INHIBITORS OF CYCLIC GMP-AMP SYNTHASE AND USES THEREOF” (Ventus Therapeutics U.S., Inc., priority 2022, published 2024)

biological target: hcGAS (Homo sapiens, UniProt Q8N884); assay: hcGAS LCMS assay (direct measurement of cGAMP production); type: biochemical; conditions: 0.5 nM hcGAS, 100 μM ATP, 100 μM GTP, 25 nM dsDNA, 4 h incubation
Protocol: cGAS catalyzes the cyclization of ATP and GTP to produce cGAMP, which is the activating ligand of STING. Human cGAS (hcGAS) inhibition can thus be quantified by measuring how much cGAMP is formed either indirectly, by monitoring ATP-depletion as in the hcGAS Kinase-Glo assay (as described below), or directly, such as using the hcGAS LCMS assay (as described below).
Compounds were tested for their h-cGAS inhibition activity using direct measurement of cGAMP production by LC/MS. Briefly, compounds were incubated with enzyme and substrates for 4 hours (see Table C), before the reaction was stopped with 3 volumes of 70/30 Acetonitrile/H2O mix containing 0.15 mM cGAMP-^13C10^5N5 as internal standard and mixed for […]. After centrifugation (3700 rpm, 10 min, 10° Celsius), […] of each reaction was collected and mixed to equal volume of Acetonitrile. Samples were then analyzed on Qexective (Column: XBridge BEH Amide Column, 130 Å, 3.5 μm, 3 mm×50 mm, Mobile phase A: 10 mM Ammonium acetate in 95/5% H2O/Acetonitrile (0.5% DMSO), Mobile phase B: Acetonitrile (0.5% DMSO).
The results of the assay, expressed as IC50 values, are reported in Table D with the following designations: A represents an IC50 value<0.005 μM; B represents an IC50 value≥0.005 μM and <0.02 μM, C represents an IC50 value≥0.02 μM and <0.06 μM; D represents an IC50 value≥0.06 and <0.2 μM; E represents an IC50 value≥0.2.

hcGAS, sequence (Q8N884 whole entry): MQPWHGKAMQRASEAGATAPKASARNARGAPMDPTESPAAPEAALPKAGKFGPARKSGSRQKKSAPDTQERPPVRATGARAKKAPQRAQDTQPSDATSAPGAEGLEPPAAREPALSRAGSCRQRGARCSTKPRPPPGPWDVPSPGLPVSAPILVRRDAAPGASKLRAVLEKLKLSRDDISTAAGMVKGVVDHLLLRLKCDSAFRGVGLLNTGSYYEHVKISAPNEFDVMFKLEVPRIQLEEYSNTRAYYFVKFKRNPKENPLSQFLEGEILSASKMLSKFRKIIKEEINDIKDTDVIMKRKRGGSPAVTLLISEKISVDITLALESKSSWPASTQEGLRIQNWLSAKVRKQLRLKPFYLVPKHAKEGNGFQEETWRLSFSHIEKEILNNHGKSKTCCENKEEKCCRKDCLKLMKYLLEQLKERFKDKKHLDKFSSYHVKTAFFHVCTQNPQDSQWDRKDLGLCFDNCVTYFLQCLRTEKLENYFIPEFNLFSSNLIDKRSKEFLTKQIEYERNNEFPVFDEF

IC50 | Structure (SMILES)
< 5 nM | COC[C@H](C1CC1)N1CCOc2c1cc(C(=O)Nc1nnc(-n3nccc3C)s1)oc2=O [Compound 226, (S)-1-(1-cyclopropyl-2-methoxyethyl)-N-(5-(5-methyl-1H-pyrazol-1-yl)-1,3,4-thiadiazol-2-yl)-5-oxo-1,2,3,5-tetrahydropyrano[3,4-b][1,4]oxazine-7-carboxamide]
< 5 nM | COC[C@@H](C)Nc1cc(C(=O)Nc2nnc(-c3c(Cl)ccn3C)s2)oc(=O)c1OC [Compound 128, (R)-N-(5-(3-chloro-1-methyl-1H-pyrrol-2-yl)-1,3,4-thiadiazol-2-yl)-3-methoxy-4-((1-methoxypropan-2-yl)amino)-2-oxo-2H-pyran-6-carboxamide]
60 to 200 nM | COCCNc1cc(C(=O)Nc2nnc(-c3c(C#N)csc3C)s2)oc(=O)c1OC [Compound 140, N-(5-(4-cyano-2-methylthiophen-3-yl)-1,3,4-thiadiazol-2-yl)-3-methoxy-4-((2-methoxyethyl)amino)-2-oxo-2H-pyran-6-carboxamide]
20 to 60 nM | COC[C@@H](C)Nc1cc(C(=O)Nc2nnc(-n3nccc3CO)s2)oc(=O)c1OC [Compound 142, (R)—N-(5-(5-(hydroxymethyl)-1H-pyrazol-1-yl)-1,3,4-thiadiazol-2-yl)-3-methoxy-4-((1-methoxypropan-2-yl)amino)-2-oxo-2H-pyran-6-carboxamide]
5 to 20 nM | COc1c(NC[C@H]2CCO2)cc(C(=O)Nc2nnc(-n3nccc3C)s2)oc1=O [Compound 118, (R)-3-methoxy-N-(5-(5-methyl-1H-pyrazol-1-yl)-1,3,4-thiadiazol-2-yl)-4-((oxetan-2-ylmethyl)amino)-2-oxo-2H-pyran-6-carboxamide]
< 5 nM | COc1c(NC2CCCC2(C)O)cc(C(=O)Nc2nnc(-n3nccc3C)s2)oc1=O (racemic) [Rac-167, 4-((2-hydroxy-2-methylcyclopentyl)amino)-3-methoxy-N-(5-(5-methyl-1H-pyrazol-1-yl)-1,3,4-thiadiazol-2-yl)-2-oxo-2H-pyran-6-carboxamide]
20 to 60 nM | COc1c(NC23CC(C2)C3)cc(C(=O)Nc2nnc(-n3nccc3N)s2)oc1=O [Compound 178, N-(5-(5-amino-1H-pyrazol-1-yl)-1,3,4-thiadiazol-2-yl)-4-(bicyclo[1.1.1]pentan-1-ylamino)-3-methoxy-2-oxo-2H-pyran-6-carboxamide]
≥ 200 nM | COc1c(NCCO[C@@H]2CCOC2)cc(C(=O)Nc2nnc(-n3nccc3C)s2)oc1=O [Compound 169, 5-methoxy-N-[5-(5-methylpyrazol-1-yl)-1,3,4-thiadiazol-2-yl]-6-oxo-4-({2-[(3R)-oxolan-3-yloxy]ethyl}amino)pyran-2-carboxamide]
5 to 20 nM | COCCOc1c(NC23CC(C2)C3)cc(C(=O)Nc2nnc(-n3nccc3N)s2)oc1=O [Compound 210, N-(5-(5-amino-1H-pyrazol-1-yl)-1,3,4-thiadiazol-2-yl)-4-(bicyclo[1.1.1]pentan-1-ylamino)-3-(2-methoxyethoxy)-2-oxo-2H-pyran-6-carboxamide]
5 to 20 nM | COc1c(N[C@@H]2COC[C@@H]2OC)cc(C(=O)Nc2nnc(-n3nccc3C)s2)oc1=O [Compound 162, 5-methoxy-4-{[(3R,4R)-4-methoxyoxolan-3-yl]amino}-N-[5-(5-methylpyrazol-1-yl)-1,3,4-thiadiazol-2-yl]-6-oxopyran-2-carboxamide]
< 5 nM | COC[C@@H](C1CC1)N1CCOc2c1cc(C(=O)Nc1nnc(-n3nccc3C)s1)oc2=O [Compound 225, (R)-1-(1-cyclopropyl-2-methoxyethyl)-N-(5-(5-methyl-1H-pyrazol-1-yl)-1,3,4-thiadiazol-2-yl)-5-oxo-1,2,3,5-tetrahydropyrano[3,4-b][1,4]oxazine-7-carboxamide]
5 to 20 nM | COCC1(Nc2cc(C(=O)Nc3nnc(-n4nccc4C)s3)oc(=O)c2OC)CC1 [Compound 97, 3-methoxy-4-((1-(methoxymethyl)cyclopropyl)amino)-N-(5-(5-methyl-1H-pyrazol-1-yl)-1,3,4-thiadiazol-2-yl)-2-oxo-2H-pyran-6-carboxamide]
5 to 20 nM | COCCNc1cc(C(=O)Nc2nnc(-n3nccc3N)s2)oc(=O)c1OC [Compound 205, N-(5-(5-amino-1H-pyrazol-1-yl)-1,3,4-thiadiazol-2-yl)-3-methoxy-4-((2-methoxyethyl)amino)-2-oxo-2H-pyran-6-carboxamide]
5 to 20 nM | COc1c(N2CC[C@H](OC)C2=O)cc(C(=O)Nc2nnc(-n3nccc3C)s2)oc1=O [Compound 151, 5-methoxy-4-[(3S)-3-methoxy-2-oxopyrrolidin-1-yl]-N-[5-(5-methylpyrazol-1-yl)-1,3,4-thiadiazol-2-yl]-6-oxopyran-2-carboxamide]
5 to 20 nM | COCC1(Nc2cc(C(=O)Nc3nnc(-n4nccc4C)s3)oc(=O)c2OC)CCC1 [Compound 196]
20 to 60 nM | COc1c(N2CCCS2(=O)=O)cc(C(=O)Nc2nnc(-n3nccc3C)s2)oc1=O [Compound 99, 4-(1,1-dioxidoisothiazolidin-2-yl)-3-methoxy-N-(5-(5-methyl-1H-pyrazol-1-yl)-1,3,4-thiadiazol-2-yl)-2-oxo-2H-pyran-6-carboxamide]
< 5 nM | COC[C@@H](c1ccccc1)N1CCOc2c1cc(C(=O)Nc1nnc(-n3nccc3C)s1)oc2=O [Compound 227, (R)-1-(2-methoxy-1-phenylethyl)-N-(5-(5-methyl-1H-pyrazol-1-yl)-1,3,4-thiadiazol-2-yl)-5-oxo-1,2,3,5-tetrahydropyrano[3,4-b][1,4]oxazine-7-carboxamide]
< 5 nM | COc1c(N[C@@H]2CCCCC[C@@H]2O)cc(C(=O)Nc2nnc(-n3nccc3C)s2)oc1=O (racemic) [Rac-26, 4-(((cis)-2-hydroxycycloheptyl)amino)-3-methoxy-N-(5-(5-methyl-1H-pyrazol-1-yl)-1,3,4-thiadiazol-2-yl)-2-oxo-2H-pyran-6-carboxamide]

The remaining lines, values behind:

Structure (SMILES) | IC50
COc1c(N[C@H]2CCN(C)C2=O)cc(C(=O)Nc2nnc(-n3nccc3C)s2)oc1=O (single isomer, unassigned) [71*] | 5 to 20 nM
CC[C@@H](COC)Nc1cc(C(=O)Nc2nnc(-n3nccc3C)s2)oc(=O)c1OC (single isomer, unassigned) [192*] | 5 to 20 nM
COc1c(N[C@@H]2CCC[C@H]2OC)cc(C(=O)Nc2nnc(-n3nccc3C)s2)oc1=O (single isomer, unassigned) [3*] | < 5 nM
COc1c(N[C@H]2CCCC[C@H]2OC)cc(C(=O)Nc2nnc(-n3nccc3C)s2)oc1=O [Compound 27, 3-methoxy-4-(((1S,2R)-2-methoxycyclohexyl)amino)-N-(5-(5-methyl-1H-pyrazol-1-yl)-1,3,4-thiadiazol-2-yl)-2-oxo-2H-pyran-6-carboxamide] | 5 to 20 nM
COC[C@@H]1CCN1c1cc(C(=O)Nc2nnc(-n3nccc3C)s2)oc(=O)c1OC [Compound 95, (S)-3-methoxy-4-(2-(methoxymethyl)azetidin-1-yl)-N-(5-(5-methyl-1H-pyrazol-1-yl)-1,3,4-thiadiazol-2-yl)-2-oxo-2H-pyran-6-carboxamide] | 5 to 20 nM
COc1c(NC23CCC(CC2)CC3)cc(C(=O)Nc2nnc(-n3nccc3C)s2)oc1=O [Compound 18, 4-(bicyclo[2.2.2]octan-1-ylamino)-3-methoxy-N-(5-(5-methyl-1H-pyrazol-1-yl)-1,3,4-thiadiazol-2-yl)-2-oxo-2H-pyran-6-carboxamide] | < 5 nM
COc1c(N[C@@H]2CC[C@@H]2OCC(F)F)cc(C(=O)Nc2nnc(-n3nccc3C)s2)oc1=O (single isomer, unassigned) [173*] | 20 to 60 nM
COc1c(N[C@H]2CCC[C@H]2OC)cc(C(=O)Nc2nnc(-n3nccc3C)s2)oc1=O (single isomer, unassigned) [214*] | 5 to 20 nM
COC[C@H](Nc1cc(C(=O)Nc2nnc(-n3nccc3C)s2)oc(=O)c1OC)C1CC1 (single isomer, unassigned) [Compound 21*] | 5 to 20 nM
COc1c(N[C@H]2CCC[C@H]2OC)cc(C(=O)Nc2nnc(-c3c(Cl)ccn3C)s2)oc1=O (single isomer, unassigned) [47*] | < 5 nM
COC[C@H](Nc1cc(C(=O)Nc2nnc(-n3nccc3C)s2)oc(=O)c1OC)C(C)C [Compound 78, (R)-3-methoxy-4-((1-methoxy-3-methylbutan-2-yl)amino)-N-(5-(5-methyl-1H-pyrazol-1-yl)-1,3,4-thiadiazol-2-yl)-2-oxo-2H-pyran-6-carboxamide] | < 5 nM
COC[C@@H](Nc1cc(C(=O)Nc2nnc(-n3nccc3C)s2)oc(=O)c1OC)c1ccccc1 [Compound 49, (S)-3-methoxy-4-((2-methoxy-1-phenylethyl)amino)-N-(5-(5-methyl-1H-pyrazol-1-yl)-1,3,4-thiadiazol-2-yl)-2-oxo-2H-pyran-6-carboxamide] | 20 to 60 nM
COC[C@@H](Nc1cc(C(=O)Nc2nnc(-n3nccc3C)s2)oc(=O)c1OC)c1ccccc1OC (single isomer, unassigned) [199*] | < 5 nM
COc1c(NC23COC(C2)C3)cc(C(=O)Nc2nnc(-n3nccc3C)s2)oc1=O [Compound 51, 4-((2-oxabicyclo[2.1.1]hexan-4-yl)amino)-3-methoxy-N-(5-(5-methyl-1H-pyrazol-1-yl)-1,3,4-thiadiazol-2-yl)-2-oxo-2H-pyran-6-carboxamide] | 5 to 20 nM
